# Laboratory results as given in ChEMBL document CHEMBL1135239, “Imidazo[5,1-f]triazin-4(3H)-ones, a new class of potent PDE 5 inhibitors” (Bioorg Med Chem Lett, 2002).
# Key:
# Phosphodiesterase 1 = Phosphodiesterase 1 (Bos taurus, UniProt Q01061+P14100); assay: Inhibition of Phosphodiesterase 1; format: protein assay
# Phosphodiesterase 3 = Phosphodiesterase 3 (Homo sapiens, UniProt Q14432+Q13370); assay: Inhibition of Phosphodiesterase 3; format: protein assay
# [1] = molecular target: cGMP-specific 3',5'-cyclic phosphodiesterase (Homo sapiens, UniProt O76074)
# Phosphodiesterase 4 = Phosphodiesterase 4 (Homo sapiens, UniProt P27815+Q08499+Q07343+Q08493); assay: Inhibition of Phosphodiesterase 4; format: protein assay
# Oryctolagus cuniculus = assay: In vivo minimal effective dose for inhibition of phosphodiesterase in conscious rabbit model by peroral administration; format: functional; conditions: po, read-out: MED
structure (smiles),measurement,setting,value
CCCc1nc(C)c2c(=O)[nH]c(-c3cc(S(=O)(=O)N4CCN(C)CC4)ccc3OCC)nn12,IC50,Phosphodiesterase 1,300 nM
same,IC50,Phosphodiesterase 3,> 500 nM
CCCOc1ccccc1-c1nc2c(ncn2CCC)c(=O)[nH]1,IC50,[1],10 nM
same,IC50,Phosphodiesterase 3,> 500 nM
same,IC50,Phosphodiesterase 4,> 500 nM
CCCc1nc(C)c2c(=O)[nH]c(-c3ccccc3OCC)nn12,IC50,[1],5 nM
same,IC50,Phosphodiesterase 1,300 nM
same,IC50,Phosphodiesterase 3,> 500 nM
same,IC50,Phosphodiesterase 4,> 500 nM
CCCc1nn(C)c2c(=O)[nH]c(-c3ccccc3OCC)nc12,IC50,[1],40 nM
same,IC50,Phosphodiesterase 3,> 500 nM
same,IC50,Phosphodiesterase 4,> 500 nM
CCCc1nc(C)c2c(O)nc(-c3cc(S(=O)(=O)N4CCN(CC)CC4)ccc3OCC)nn12.Cl [VARDENAFIL HYDROCHLORIDE],IC50,Phosphodiesterase 1,180 nM
same,minimal effective dose,Oryctolagus cuniculus,3 mg/kg
CCCOc1ccc(S(=O)(=O)N2CCN(C)CC2)cc1-c1nc2c(ncn2CCC)c(=O)[nH]1,IC50,Phosphodiesterase 3,> 500 nM
same,IC50,Phosphodiesterase 4,> 500 nM
